# Where a name gives a salt, the structure may show the parent alone.
# System: peripheral blood mononuclear cells (PBMCs) from healthy donors
# Experiment: IFN production by R848-activated PBMCs, quantified with twINNE luciferase reporter cell line
# Type: cell-based, human
# Settings: Homo sapiens, PBMC; read-out: IC50 of anti-inflammatory activity (IFN production by activated PBMCs)
# Method in brief: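 Functional IFN was quantified by luciferase output from the twINNE ISRE-reporter line after 24 h on conditioned supernatants. Those supernatants came from human PBMCs (4.10^6/mL) pre-treated with compound and then stimulated for 24 h with 5 μg/mL resiquimod. IC50s were fitted by nonlinear variable-slope regression.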
row,Compound,IC50
1,"c1ccc(COC2CCN(CCSC3=NCc4ccccc4N3)C2)cc1 (stereo not shown) [Example 143, 2-((2-(3-(benzyloxy)pyrrolidin-1-yl)ethyl)thio)-1,4-dihydroquinazoline dihydrochloride]",≤ 10 µM
2,"Cc1cccc(CC2CN3C(CSC4=NCc5ccccc5N4)=CSC3=N2)c1 (stereo not shown) [Example 112, 3-(((1,4-dihydroquinazolin-2-yl)thio)methyl)-6-(3-methylbenzyl)-5,6-dihydroimidazo[2,1-b]thiazole dihydrochloride]",≤ 10 µM
3,"Clc1ccc(CC2CN3C(CSC4=NCc5ccccc5N4)=CSC3=N2)cc1 (stereo not shown) [Example 94, 6-(4-chlorobenzyl)-3-(((1,4-dihydroquinazolin-2-yl)thio)methyl)-5,6-dihydroimidazo[2,1-b]thiazole dihydrochloride]",≤ 10 µM
4,"CN1CCC(SC2=NCc3cc(Cl)ccc3N2)C1 (stereo not shown) [Example 103, 6-chloro-2-((1-methylpyrrolidin-3-yl)thio)-1,4-dihydroquinazoline dihydrochloride]",≤ 10 µM
5,"Clc1ccc(C2CN=C(SCC3=CSC4=NCc5ccccc5CN34)N2)cc1 (stereo not shown) [Example 22, 3-(((4-(4-chlorophenyl)-4,5-dihydro-1H-imidazol-2-yl)thio)methyl)-5,10-dihydrobenzo[e]thiazolo[3,2-a][1,3]diazepine dihydrochloride]",≤ 10 µM
6,"c1ccc(N2CCC(SC3=NCc4ccccc4N3)C2)cc1 (stereo not shown) [Example 101, 2-((1-phenylpyrrolidin-3-yl)thio)-1,4-dihydroquinazoline hydrochloride]",10 to 32 µM
7,"CCCCN1C(SCC2=CSC3=NC(Cc4ccccc4)CN23)=NCc2ccccc21 (stereo not shown) [Example 99, 6-benzyl-3-(((1-butyl-1,4-dihydroquinazolin-2-yl)thio)methyl)-5,6-dihydroimidazo[2,1-b]thiazole dihydrochloride]",≤ 10 µM
8,"CC(CCCSC1=NCc2ccccc2N1)N1CCCC1 (stereo not shown) [Example 165, 2-((4-(pyrrolidin-1-yl)pentyl)thio)-1,4-dihydroquinazoline dihydrochloride]",10 to 32 µM
9,"CC1(C)CN=C(SCCCCN2CCCC2)N1 [Example 172, 4,4-dimethyl-2-((4-(pyrrolidin-1-yl)butyl)thio)-4,5-dihydro-1H-imidazole dihydrochloride]",> 32 µM
10,"Fc1ccc2c(c1)CN=C(SCCCCN1CCCC1)N2 [Example 152, 6-fluoro-2-((4-(pyrrolidin-1-yl)butyl)thio)-1,4-dihydroquinazoline dihydrochloride]",10 to 32 µM
11,"CC1(C)CN=C(SCC2=CSC3=NCc4ccccc4CN23)N1 [Example 8, 3-(((5,5-dimethyl-4,5-dihydro-1H-imidazol-2-yl)thio)methyl)-5,10-dihydrobenzo[e]thiazolo[3,2-a][1,3]diazepine dihydrochloride]",≤ 10 µM
12,"Clc1ccc2c(c1)CN=C(SCCCCN1CCCCC1)N2 [Example 164, 6-chloro-2-((4-(piperidin-1-yl)butyl)thio)-1,4-dihydroquinazoline dihydrochloride]",≤ 10 µM
13,"COc1ccc(CC2(C)CN=C(SCC3=CSC4=NCc5ccccc5CN34)N2)cc1 (stereo not shown) [Example 34, 3-(((5-(4-methoxybenzyl)-5-methyl-4,5-dihydro-1H-imidazol-2-yl)thio)methyl)-5,10-dihydrobenzo[e]thiazolo[3,2-a][1,3]diazepine dihydrochloride]",≤ 10 µM
14,"Brc1ccc2c(c1)NC(SCC1=CSC3=NC(Cc4ccccc4)CN13)=NC2 (stereo not shown) [Example 119, 6-benzyl-3-(((7-bromo-1,4-dihydroquinazolin-2-yl)thio)methyl)-5,6-dihydroimidazo[2,1-b]thiazole dihydrochloride]",≤ 10 µM
15,"c1ccc2c(c1)NC(SCCCCN1CCCC1)=NC21CC1 [Example 180, 2′-((4-(pyrrolidin-1-yl)butyl)thio)-1′H-spiro[cyclopropane-1,4′-quinazoline] dihydrochloride]",10 to 32 µM
16,"FC(F)CN1CCC(SC2=NCc3ccccc3N2)C1 (stereo not shown) [Example 102, 2-((1-(2,2-difluoroethyl)pyrrolidin-3-yl)thio)-1,4-dihydroquinazoline hydrochloride]",10 to 32 µM
17,"F[C@@H]1CCN(CCSC2=NCc3ccccc3N2)C1 [Example 157, (R)-2-((2-(3-fluoropyrrolidin-1-yl)ethyl)thio)-1,4-dihydroquinazoline dihydrochloride]",10 to 32 µM
18,"Brc1ccc2c(c1)CN=C(SCCCCN1CCCC1)N2 [Example 163, 6-bromo-2-((4-(pyrrolidin-1-yl)butyl)thio)-1,4-dihydroquinazoline dihydrochloride]",≤ 10 µM
19,"CCN1CCC(SC2=NCc3ccccc3N2)C1 (stereo not shown) [Example 104, 2-((1-ethylpyrrolidin-3-yl)thio)-1,4-dihydroquinazoline dihydrochloride]",≤ 10 µM
20,"c1ccc2c(c1)CCN=C(S[C@H]1CCNC1)N2 [Example 199, (S)-2-(pyrrolidin-3-ylthio)-4,5-dihydro-3H-benzo[d][1,3]diazepine dihydrochloride]",10 to 32 µM

row,Compound,IC50
1,"CC1(C)N=C(SCCN2CCCC2)Nc2ccccc21 [Example 78, 4,4-dimethyl-2-((2-(pyrrolidin-1-yl)ethyl)thio)-1,4-dihydroquinazoline dihydrochloride]",> 32 µM
2,"CN1CCC(SC2=NCc3ccccc3N2)C1 (stereo not shown) [Example 100, 2-((1-methylpyrrolidin-3-yl)thio)-1,4-dihydroquinazoline dihydrochloride]",≤ 10 µM
3,"Fc1cccc2c1CN1C(CSC3=NCc4ccccc4N3)=CSC1=N2 [Example 18, 3-(((3,4-dihydroquinazolin-2-yl)thio)methyl)-6-fluoro-5H-thiazolo[2,3-b]quinazoline dihydrochloride]",≤ 10 µM
4,"CC(C)(C)OC(=O)N1CC[C@H](SC2=NCCc3ccccc3N2)C1 [Example 198, tert-butyl (S)-3-((4,5-dihydro-1H-benzo[d][1,3]diazepin-2-yl)thio)pyrrolidine-1-carboxylate]",10 to 32 µM
5,"IC1=C(CSC2=NCc3ccccc3N2)N2CC(Cc3ccccc3)N=C2S1 (stereo not shown) [Example 110, 6-benzyl-3-(((1,4-dihydroquinazolin-2-yl)thio)methyl)-2-iodo-5,6-dihydroimidazo[2,1-b]thiazole dihydrochloride]",≤ 10 µM
6,"CN1CCCC1CSC1=NCc2ccccc2N1 (stereo not shown) [Example 108, 2-(((1-methylpyrrolidin-2-yl)methyl)thio)-1,4-dihydroquinazoline dihydrochloride]",10 to 32 µM
7,"Clc1ccc2c(c1)CN=C(SCC1=CSC3=Nc4ccccc4CN13)N2 [Example 39, 3-(((6-chloro-1,4-dihydroquinazolin-2-yl)thio)methyl)-5H-thiazolo[2,3-b]quinazoline dihydrochloride]",≤ 10 µM
8,"Clc1cccc2c1NC(SCCCCN1CCCC1)=NC2 [Example 153, 8-chloro-2-((4-(pyrrolidin-1-yl)butyl)thio)-1,4-dihydroquinazoline dihydrochloride]",≤ 10 µM
9,"Fc1ccc2c(c1)CN=C(SCC1=CSC3=Nc4ccc(Cl)cc4CN13)N2 [Example 83, 7-chloro-3-(((6-fluoro-1,4-dihydroquinazolin-2-yl)thio)methyl)-5H-thiazolo[2,3-b]quinazoline dihydrochloride]",≤ 10 µM
10,"CN1CCC(SC2=NC(C)(C)c3ccccc3N2)C1 (stereo not shown) [Example 98, 4,4-dimethyl-2-((1-methylpyrrolidin-3-yl)thio)-1,4-dihydroquinazoline dihydrochloride]",> 32 µM
11,"C1=C(CSC2=NCC(C3CCCCC3)N2)N2Cc3ccccc3CN=C2S1 (stereo not shown) [Example 26, 3-(((4-cyclohexyl-4,5-dihydro-1H-imidazol-2-yl)thio)methyl)-5,10-dihydrobenzo[e]thiazolo[3,2-a][1,3]diazepine dihydrochloride]",≤ 10 µM
12,"c1ccc(C2CCCN2CCSC2=NCc3ccccc3N2)cc1 (stereo not shown) [Example 128, 2-((2-(2-phenylpyrrolidin-1-yl)ethyl)thio)-1,4-dihydroquinazoline dihydrochloride]",≤ 10 µM
13,"Cl.c1ccc2c(c1)CN=C(SCc1csc3nc4ccccc4n13)N2 [Example 96, 3-(((3,4-dihydroquinazolin-2-ylthio)methyl)benzo[4,5]imidazo[2,1-b]thiazole hydrochloride]",> 32 µM
14,"Cc1ccc(CC2CN3C(CSC4=NCc5ccccc5N4)=CSC3=N2)cc1 (stereo not shown) [Example 122, 3-(((1,4-dihydroquinazolin-2-yl)thio)methyl)-6-(4-methylbenzyl)-5,6-dihydroimidazo[2,1-b]thiazole dihydrochloride]",≤ 10 µM
15,"Clc1ccc2c(c1)CN1C(CSC3=NCc4ccc(Br)cc4N3)=CSC1=N2 [Example 66, 3-(((7-bromo-1,4-dihydroquinazolin-2-yl)thio)methyl)-7-chloro-5H-thiazolo[2,3-b]quinazoline dihydrochloride]",≤ 10 µM
16,"CC1(C)N=C(SCC2=CSC3=NC(Cc4ccccc4)CN23)Nc2ccccc21 (stereo not shown) [Example 87, 6-benzyl-3-(((4,4-dimethyl-1,4-dihydroquinazolin-2-yl)thio)methyl)-5,6-dihydroimidazo[2,1-b]thiazole dihydrochloride]",≤ 10 µM
17,"C1CCN(CCSC2=NCC3(CC3)N2)C1 [Example 187, 5-((2-(pyrrolidin-1-yl)ethyl)thio)-4,6-diazaspiro[2.4]hept-5-ene dihydrochloride]",≤ 10 µM
18,"O=C1CCCN1CCSC1=NCc2ccccc2N1 [Example 135, 1-(2-((1,4-dihydroquinazolin-2-yl)thio)ethyl)pyrrolidin-2-one hydrochloride]",> 32 µM
19,"Fc1cc(Cl)cc2c1N=C1SC=C(CSC3=NCc4ccccc4N3)N1C2 [Example 86, 7-chloro-3-(((1,4-dihydroquinazolin-2-yl)thio)methyl)-9-fluoro-5H-thiazolo[2,3-b]quinazoline dihydrochloride]",≤ 10 µM

# Same assay, conditions: PBMCs from 2 healthy donors, R848 5 μg/mL, IFN in supernatant by twINNE luciferase reporter; IT1t value is mean of at least 7 independent sets; read-out: IC50 of anti-inflammatory activity (IFN production by activated PBMCs)
row,Compound,IC50
1,"CC1(C)CN2C(CSC(=NC3CCCCC3)NC3CCCCC3)=CSC2=N1 [IT1t, reference compound]",32 µM

# From patent US20240018125A1, “CYCLIC ISOTHIOUREA DERIVATIVES AS CXCR4 MODULATORS” (ERMIUM THERAPEUTICS, priority 2020, published 2024)
